According to patent US20190194148A1, “TETRAZOLE-CONTAINING 1,2-CYCLOPROPANE-CARBOXAMIDES” (Bayer Pharma Aktiengesellschaft, priority 2017, published 2019):
Where two headings read alike, the source gives them in different places.

How the values were obtained:
[1] = biological target: T1, human B1 receptor (Homo sapiens, UniProt P46663); assay: Calcium flux assay (FLIPR) with recombinant CHO-K1 cells expressing human B1 receptor; format: cell-based
T1 construct: host or cells: CHO-K1
T1 sequence (P46663 1-353): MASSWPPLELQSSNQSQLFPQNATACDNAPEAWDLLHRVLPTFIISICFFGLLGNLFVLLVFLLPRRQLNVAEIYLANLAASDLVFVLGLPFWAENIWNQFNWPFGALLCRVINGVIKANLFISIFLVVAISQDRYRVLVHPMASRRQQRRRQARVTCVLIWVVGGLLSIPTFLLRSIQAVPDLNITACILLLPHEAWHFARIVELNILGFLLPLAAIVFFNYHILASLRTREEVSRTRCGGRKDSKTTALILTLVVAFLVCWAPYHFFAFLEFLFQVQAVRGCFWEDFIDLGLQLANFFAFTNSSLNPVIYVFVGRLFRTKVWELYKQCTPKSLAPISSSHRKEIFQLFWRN
Outline: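 Indicator-loaded CHO-K1 cells expressing human B1 receptor were pre-incubated with compound (8 concentrations, triplicate, 1% DMSO) for 30 min at 28° C, in assay buffer with or without 0.1% BSA (hB1 IC50 vs free IC50). They were then challenged with Lys-(Des-Arg)-bradykinin from plates at 3.5×EC90, with peak FLIPR fluorescence read at 538 nm. IC50 was fitted from % response between DMSO and full block by 20 μM Lys-(Des-Arg-Leu)-bradykinin.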

[2] = system: IL-6 secretion; assay: Bradykinin B1 receptor agonist-induced secretion of IL-6 in human IMR-90 cells; format: cell-based; settings: IMR-90 cells stimulated with 0.1 μM Lys-[Des-Arg9]Bradykinin and 0.1 μM Sar-[D-Phe8]-des-Arg9-Bradykinin for 5 hours
Excerpt: (§1) Inhibitory Activity on Bradykinin B1 Receptor Agonist-Induced Secretion of IL-6 and IL-8 in Human IMR-90 Cells
(§2) The effect of the example compounds on cytokine secretion has been investigated in the human fetal lung fibroblast IMR-90 cell line. Here the induction of the cytokine secretion was induced by the Bradykinin B1 receptor agonists Lys-[Des-Arg9]Bradykinin and Sar-[D-Phe8]-des-Arg9-Bradykinin leading to the activation of the Bradykinin B1 receptor-driven signaling pathway.
(§3) IMR-90 cells were cultured in Eagle's Minimum Essential Medium (EMEM) containing 2 mM L-glutamine, 1 g/L glucose, 1.5 g/L NaHCO3, 1 mM sodium pyruvate and non-essential amino acids (ATCC, 30-2003™) supplemented with 10% FBS (Biochrom, S0615) and 50 U/mL Penicillin, 50 μg/mL Streptomycin (PAA, P11-010). The assay was performed in EMEM and a cell density of […] IMR-90 cells/96-well. The example compounds have been serial diluted in 100% DMSO and evaluated at 8 different concentrations within the range of 3 nM and 10 μM and a final DMSO concentration of 0.4%. […] The amount of IL-6 and IL-8 in the supernatant was determined using the Human Prolnflammatory 9-Plex (MSD, K15007B) according to manufacturer's instruction. The cell viability was measured using the CellTiter-Glo Luminescent Assay (Promega, G7571) following the manufacturers protocol. […]

[3] = system: IL-8 secretion; assay: Bradykinin B1 receptor agonist-induced secretion of IL-8 in human IMR-90 cells; format: cell-based; settings: IMR-90 cells stimulated with 0.1 μM Lys-[Des-Arg9]Bradykinin and 0.1 μM Sar-[D-Phe8]-des-Arg9-Bradykinin for 5 hours
Excerpt: as §1, §2, §3

[4] = system: IMR-90 cells; assay: Cell viability of stimulated IMR-90 cells (CellTiter-Glo); format: cell-based, human
Procedure: IMR-90 cells were cultured in Eagle's Minimum Essential Medium (EMEM) containing 2 mM L-glutamine, 1 g/L glucose, 1.5 g/L NaHCO3, 1 mM sodium pyruvate and non-essential amino acids (ATCC, 30-2003™) supplemented with 10% FBS (Biochrom, S0615) and 50 U/mL Penicillin, 50 μg/mL Streptomycin (PAA, P11-010). The assay was performed in EMEM and a cell density of […] IMR-90 cells/96-well. The example compounds have been serial diluted in 100% DMSO and evaluated at 8 different concentrations within the range of 3 nM and 10 μM and a final DMSO concentration of 0.4%. The IMR-90 cells have been incubated with the respective concentration of the example compound for 30 min. The enhanced secretion of IL-6 and IL-8 was induced by the stimulation of these cells with 0.1 μM Lys-[Des-Arg9]Bradykinin (Tocris, 3225) and 0.1 μM Sar-[D-Phe8]-des-Arg9-Bradykinin (Tocris, 3230) for 5 hours at 37° C. and 5% CO2. Further, cells have been treated with Lys-[Des-Arg9] Bradykinin and Sar-[D-Phe8]-des-Arg9-Bradykinin as neutral control and with 0.1% DMSO as inhibitor control. The amount of IL-6 and IL-8 in the supernatant was determined using the Human Prolnflammatory 9-Plex (MSD, K15007B) according to manufacturer's instruction. The cell viability was measured using the CellTiter-Glo Luminescent Assay (Promega, G7571) following the manufacturers protocol.

[5] = biological target: T2, native human B1 receptors (Homo sapiens, UniProt P46663); assay: Calcium flux assay (FLIPR) with IMR-90 human fibroblasts for Bradykinin B1 receptor antagonist; format: cell-based; settings: IMR-90 human foetal lung fibroblasts after induction with human IL-1; 0.1% BSA in assay buffer; read-out: hB1 IC50 IMR90
T2 construct: which express native human B1 receptors after induction with human IL-1; Coriell Institute; host or cells: IMR-90 human foetal lung fibroblasts, induced with human IL-1beta
T2 sequence (P46663 1-353): T1 sequence (P46663 1-353)
Procedure: Calcium Flux Assay (FLIPR) with Human Fibroblasts for Bradykinin B1 Receptor Antagonist (hB1 IMR-90 IC50)
The Calcium flux Assay was carried out utilising IMR-90 human foetal lung fibroblasts (American Type Culture Collection, Rockville, Md.; and Coriell Institute, Camden, N.J.), which express native human B1 receptors after induction with human IL-1[…].
The fibroblasts were cultured in complete growth media comprised of Dulbecco's modified Eagle's medium (DMEM; Sigma) containing 10% foetal bovine serum, 4 mM L-glutamine, and 1% nonessential amino acids. The cells were maintained in a humidified atmosphere with 5% CO2 at 37° C. and were sub-cultured at a ratio of 1:3, every other day.
For the assay, IMR-90 fibroblasts were harvested using TrypLE Express (GIBCO/Invitrogen) and seeded into 384-well plates (Corning Cellbinding Surface, Cat. 3683) at a density of 15000 cells/well. The following day, cells were treated with 0.35 ng/mL human IL-1[…] in 10% FBS/MEM for 3 h to up-regulate B1 receptors. Induced cells were loaded with fluorescent calcium indicator by incubation with 2.5 μM Fluo-4/AM (Invitrogen) at 37° C., 5% CO2 for 2 h in the presence of 2.5 mM probenecid in 1% FBS/MEM. Extracellular dye was removed by washing with assay buffer (2.5 mM probenecid and 0.1% BSA in 20 mM HEPES/HBSS without bicarbonate or phenol red, pH 7.5). Example compounds were assayed at 8 concentrations in triplicate. […] A peptide antagonist Lys-(Des-Arg-Leu)-Bradykinin (Bachem, Brackley) at 20 µM was used to determine the full inhibition as control. IC50 values were determined by the same way described for the FLIPR assay with recombinant cells.

[6] = presence of 0.1% BSA in assay buffer, read-out: hB1 IC50

| SMILES | IC50 ([1]; absence of 0.1% BSA in assay buffer, read-out: hB1 free IC50) | IC50 [1, 6] | IC50 [2] | IC50 [3] | effect on the cell viability [4] | IC50 [5] |
| --- | --- | --- | --- | --- | --- | --- |
| CC(C)(C)c1cn(-c2ccc(NC(=O)C3CC3c3ccc(Cl)cc3)cc2-c2nnn[nH]2)cn1 (racemic) [Example 48, N-[4-(4-tert-butyl-1H-imidazol-1-yl)-3-(1H-tetrazol-5-yl)phenyl]-2-(4-chlorophenyl)cyclo-propanecarboxamide] | 10 nM | 25 nM | 192 nM | 164 nM | no effect | – |
| COc1ccc(-c2ccc(NC(=O)C3CC3C3CCCCC3)cc2-c2nnn[nH]2)cc1OC (single isomer, unassigned) [Example 14, 2-Cyclohexyl-N-[3′,4′-dimethoxy-2-(1H-tetrazol-5-yl)biphenyl-4-yl]cyclopropane-carboxamide] | – | 27 nM | – | – | – | 20 nM |
